According to ChEMBL document CHEMBL1201862, “PubChem BioAssay data set” (2004):
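Assay format: 96-well plates, 48-hour exposure. Abbreviation: GI50, concentration required for 50% inhibition of growth.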 Calls of active or inactive are those of the source. No stated cut-off is given here; in the data, active = GI50 up to about 1.1 µM and inactive = higher.

Key:
Experiment in all cases: NCI anticancer screen, dose series, 48 h
KM12 = system: KM12
HOP-92 = system: HOP-92
SN12C = system: SN12C
NCI-H522 = system: NCI-H522
U-251 = system: U-251
OVCAR-5 = system: OVCAR-5
K562 = system: K562
MOLT-4 = system: MOLT-4
OVCAR-8 = system: OVCAR-8
SW-620 = system: SW-620
COLO 205 = system: COLO 205
OVCAR-3 = system: OVCAR-3
SNB-19 = system: SNB-19
IGROV-1 = system: IGROV-1
SK-OV-3 = system: SK-OV-3
A549 = system: A549
NCI-H226 = system: NCI-H226
A498 = system: A498
HOP-62 = system: HOP-62

Measured: GI50

COC(=O)/C=c1\s/c(=C\C(=O)OC)c2ccccc12
inactive: KM12 11.7 µM | HOP-92 > 100 µM | SN12C > 100 µM | NCI-H522 > 100 µM | U-251 > 100 µM | OVCAR-5 > 100 µM | K562 > 100 µM | MOLT-4 > 100 µM | OVCAR-8 > 100 µM | SW-620 > 100 µM | COLO 205 > 100 µM | OVCAR-3 > 100 µM | SNB-19 > 100 µM | IGROV-1 > 100 µM | SK-OV-3 > 100 µM | A549 > 100 µM | NCI-H226 57.8 µM | A498 > 100 µM

COc1ccc2oc(-c3cccnc3)cc(=O)c2c1
inactive: KM12 > 100 µM | HOP-92 46.1 µM | SN12C 71.4 µM | U-251 > 100 µM | OVCAR-5 > 10 µM | K562 67.8 µM | MOLT-4 36.6 µM | COLO 205 > 100 µM | OVCAR-3 91.8 µM | HOP-62 84.7 µM | SNB-19 97.1 µM | IGROV-1 70.8 µM | NCI-H226 > 100 µM | A498 61.2 µM

NC(=O)c1ccccc1NC(=O)C(=O)Nc1n[nH]c(N)n1
inactive: KM12 > 100 µM | SN12C > 100 µM | NCI-H522 > 100 µM | U-251 > 100 µM | OVCAR-5 > 100 µM | K562 > 100 µM | MOLT-4 > 100 µM | OVCAR-8 > 100 µM | SW-620 > 100 µM | COLO 205 > 100 µM | OVCAR-3 > 100 µM | HOP-62 > 100 µM | SNB-19 > 100 µM | IGROV-1 > 100 µM | SK-OV-3 > 100 µM | A549 > 100 µM | NCI-H226 > 100 µM | A498 > 100 µM

C[C@]12CCC(=O)C=C1CC[C@@H]1C2CC[C@]2(C)NC(=O)C(C#N)CC12 (some centres undefined)
inactive: KM12 > 10 µM | U-251 > 100 µM | OVCAR-5 > 100 µM | K562 > 100 µM | MOLT-4 > 100 µM | OVCAR-8 > 100 µM | SW-620 > 100 µM | OVCAR-3 > 100 µM | HOP-62 39.6 µM | IGROV-1 > 100 µM | SK-OV-3 > 100 µM | A549 > 100 µM | NCI-H226 > 100 µM | A498 > 100 µM

CN[C@@H](C)[C@@H](NC)c1ccccc1
inactive: KM12 > 100 µM | HOP-92 > 100 µM | SN12C > 100 µM | NCI-H522 > 100 µM | U-251 1.52 µM | K562 > 100 µM | MOLT-4 > 100 µM | OVCAR-8 > 100 µM | SW-620 > 100 µM | COLO 205 > 100 µM | OVCAR-3 > 100 µM | IGROV-1 > 100 µM | SK-OV-3 > 100 µM | A549 > 100 µM | NCI-H226 > 100 µM | A498 > 100 µM

CC(=O)Nc1cccc2[nH]c3ccccc3c(=O)c12
inactive: KM12 17.7 µM | SN12C 22.4 µM | NCI-H522 10.3 µM | U-251 24.1 µM | OVCAR-5 20.6 µM | K562 21.8 µM | MOLT-4 17.1 µM | OVCAR-8 16.4 µM | SW-620 21.4 µM | COLO 205 16.3 µM | OVCAR-3 20.1 µM | SNB-19 23.2 µM | IGROV-1 26.4 µM | SK-OV-3 32.1 µM | A549 21.6 µM | NCI-H226 14.8 µM | A498 14.9 µM

O=C(NCCNCCO)N/N=C/c1cccc([N+](=O)[O-])c1
inactive: KM12 > 100 µM | HOP-92 > 100 µM | SN12C > 100 µM | NCI-H522 > 100 µM | U-251 > 100 µM | OVCAR-5 > 100 µM | K562 > 100 µM | MOLT-4 > 100 µM | OVCAR-8 > 100 µM | SW-620 > 100 µM | COLO 205 > 100 µM | OVCAR-3 > 100 µM | HOP-62 > 100 µM | IGROV-1 > 100 µM | SK-OV-3 > 100 µM | A549 > 100 µM | NCI-H226 > 100 µM | A498 > 100 µM

COc1ccc2c(c1)O[C@H]1c3ccc(O)cc3OC[C@@H]21
inactive: SN12C 38.8 µM | NCI-H522 22.7 µM | U-251 27.9 µM | OVCAR-5 48.6 µM | K562 30.1 µM | MOLT-4 19.8 µM | OVCAR-8 36 µM | SW-620 33 µM | COLO 205 24.1 µM | OVCAR-3 29.2 µM | HOP-62 45.5 µM | SNB-19 68.1 µM | IGROV-1 17.5 µM | SK-OV-3 39.5 µM | A549 28.6 µM | NCI-H226 25.1 µM

CN(C)CCC1(C2=CCCC2)CC/C(=C\c2ccccc2)C1=O (centres undefined)
inactive: KM12 15.5 µM | HOP-92 17.7 µM | SN12C 17 µM | NCI-H522 14.1 µM | U-251 16.6 µM | OVCAR-5 19.6 µM | K562 13.8 µM | MOLT-4 14.3 µM | OVCAR-8 16.1 µM | SW-620 16.9 µM | COLO 205 14.5 µM | OVCAR-3 15.2 µM | HOP-62 16.1 µM | SNB-19 14.7 µM | IGROV-1 15.5 µM | A549 20.3 µM | NCI-H226 16.9 µM | A498 15.5 µM
